Measured values as given in patent US5627160A, “L-2',3'-dideoxy nucleoside analogs as anti-hepatitis B (HBV) and anti-HIV agents” (priority 1993, dated 1997).
“Also recorded” adds a separate entry of the source. Read-outs that look alike come from different tables or passages of the source.

Tests used:
[1] = tested on: Hepatitis B virus; conditions: Chang et al., 1992; cited from earlier work
[2] = tested on: human immunodeficiency virus (HIV); conditions: Larder et al., 1990, cited from earlier work
[3] = tested on: Hepatitis B viral infections; conditions: chronic HBV infection; foscarnet in fulminant hepatitis; cited from earlier work
[4] = tested on: HBV; test: Inhibition of HBV replication (secreted viral DNA, Southern analysis) in 2.2.15 cells; type: cell-based, Hepatitis B virus (in human hepatoma cell line 2.2.15); conditions: for IC50: Hepatitis B virus, 144 h, 2.2.15 cells, read-out: Anti-HBV ID50; for Activity against HBV, comparison / Inhibition of HBV DNA replication: in words
Procedure: The biological activity of the present compounds was assessed as described by Doong, S-L, et al., Proc. Natl. Acad. Sci. U.S.A 88, 8495-8499 (1991). The human hepatoma cell line carrying the HBV (designated 2.2.15) kindly provided by Dr. G. Acs was used in the study. Price, et al., Proc. Natl. Acad. Sci. U.S.A. 86, 8541 (1989). Briefly, six day-old cultures were treated with varying concentrations of the drug in the culture medium (Minimum essential medium with Earl's salts and 10% fetal bovine serum). The drug was left in the culture medium for a period of 3 days after which period the medium was aspirated and fresh medium containing the same concentration(s) of the drug was added. At the end of the subsequent 3 day period the culture medium was harvested. The culture medium was processed for obtaining the virions by the polyethylene glycol precipitation method (Doong, et al., supra). Viral DNA thus recovered from the secreted particles was subjected to Southern analysis. Inhibition of the viral replication was determined by the comparison of the viral DNA from drug-treated versus control cultures not treated with the drug.

[5] = Cellular toxicity in T-lymphoblastoic cell line (CEM), cell numbers 3 days post treatment; type: cell-based; conditions: human; CEM cells, 3 days; read-out: Cytotoxicity CEM Cells ID50
Procedure: (§1) To determine the cellular toxicity of the present compounds, the T-lymphoblastoic cell line (CEM) was used. Cells were subjected to varying concentrations of the drug(s) and cell numbers were determined 3 days post treatment by the method described by Chen, C-H and Cheng, Y-C J. Biol. Chem., 264, 11934 (1989). Concentrations of the drug which would result in 50% killing of the cell populations were determined from the plot generated by representing cell numbers corresponding to the individual drug concentrations.

[6] = tested on: HIV-1 (HTLV-IIIB Strain); test: Anti-HIV drug susceptibility assay in MT-2 cells (MTT dye reduction); type: cell-based; conditions: for IC50: MT-2 cells; for Anti-HIV activity compared with ddC: in words
Procedure: Drug susceptibility assay for determining the effectiveness of the compounds of the present invention against HIV in MT-2 cells is a modification of the assay described in Mellors, et al., Molecular Pharmacology, 41, 446 (1992). Drug-mediated inhibition of virus-induced cell toxicity was measured by the A595 of MTT ([3-I 4,5-dimethyl thiazol-2-yl]-2,3-diphenyltetrazolium bromide) (Sigma M-2128). Triplicate wells of a 96 well plate which contains 1×10^4 MT2 cells (AIDS-repository) were infected with HIV-1 (HTLV-IIIB Strain-R.C. Gallo) at a multiplicity of 0.01 TCID50 /cell. MT-2 cells in RPMI 1640 media supplemented with 10% dialysized fetal bovine and 100 ug/ml Kanamycin were infected with virus and immediately added to serial dilution of the drug. After 5 days, 20 ul of MTT dye (2.5 mg/ml in PBS) was added per well. At the end of a four hour incubation period 150 ul of acidified 2-propanol with NP-40 non-ionic detergent was added. After the crystals of dye dissolve (usually 1-2 days), the plates are read on a micro-plate reader. Using this MTT-dye reduction method (as set forth by Larder, et al., Antimicrobial Agents and Chemotherapy, 34, 436 (1990), the percentage of protection can be calculated using the formula [(a-b/c-b)×100] in which a=A595 of drug treated cells, b is […] and c is the A595 of the non-drug infected cells.

[7] = tested on: CEM Cells; test: Cellular toxicity in T-lymphoblastoic cell line (CEM), cell numbers 3 days post treatment; type: cell-based; conditions: in words, β-L-ddC / β-L-FddC versus ddC
Procedure: as §1

[8] = in words; cited from earlier work
[9] = in vitro; conditions: human, cem cells
Procedure: (§2) The effects of the various drug concentrations on mitochondrial DNA (mt DNA) was evaluated by the method described by Chen and Cheng, supra. CEM cells treated with varying concentrations of the drug were collected by centrifugation. After washing the cells with phosphate buffered saline, cells were lysed by suspending the cells in 10 mM Tris-HCl (pH 7.0) and repeating freeze thaw cycles. The resulting cells were then subjected to RNase A treatment at a final enzyme concentration of 10 ug/ml, followed by proteinase K treatment (100 ug/ml) for 1 hour. The DNA thus obtained by this procedure was then immobilized on nylon membrane after the addition of 0.8 vol of NaI and boiling for 10 minutes. Hybridization of the resulting DNA to a mt DNA specific probe was performed by following the method of Doong, S-L, supra and autoradiography was also performed. Quantitative estimates were obtained by scanning densitometer. The blots were stripped of the mtDNA probe and rehybridized to human Alu sequence probe to determine the amounts of DNA for normalization and estimation of absolute amounts of the mt DNA.

[10] = tested on: mitochondrial DNA (mt DNA)
Procedure: as §2

[11] = Human immunodeficiency virus 1, MT2, 120 h, HIV-1 HTLV-IIIB, Table 1, read-out: Anti-HIV ID50
[12] = Human immunodeficiency virus 1, IIIB, MT2, 120 h, read-out: ID50 concentration required to inhibit viral replication (HIV)

Q: Which “Activity against Hepatitis B virus in culture” value (“Activity … in culture” below) [1] does the source give for `Nc1nc(=O)n([C@@H]2CS[C@H](CO)O2)cc1F` (relative stereo) [(±)5-FSddC] here?
A: potent activity

Q: For `Nc1ccn([C@@H]2CS[C@H](CO)O2)c(=O)n1` (relative stereo) [(±) SddC, (+) and (-)-2',3'-Dideoxy-3'-thiacytidine], which “Activity … in culture” value [1] is on record?
A: potent inhibitors of Hepatitis B virus

Q: With `Nc1ccn([C@H]2CS[C@@H](CO)O2)c(=O)n1` (stereo in doubt) [(-)isomer, (-)-2',3'-Dideoxy-3'-thiacytidine] as the compound, how does the “Activity … in culture” value [1] read?
A: potent activity

Q: What about the Toxicity [1] of the same compound?
A: relatively low toxicity

Q: Which “Activity against human immunodeficiency virus” value [2] does the source give for `[N-]=[N+]=N[C@H]1C[C@H](n2ccc(=O)[nH]c2=O)O[C@@H]1CO` [3'-azido-2',3'-dideoxyuridine] here?
A: significant activity

Q: For `Nc1ncnc2c1ncn2[C@H]1C[C@H](F)[C@@H](CO)O1` [3'-fluoro-2',3'-dideoxyadenosine], which “Activity against human immunodeficiency virus” value [2] is on record?
A: significant activity

Q: With `Cc1cn([C@H]2C[C@H](F)[C@@H](CO)O2)c(=O)[nH]c1=O` [3'-fluoro-3'-deoxythymidine] as the compound, how does the “Activity against human immunodeficiency virus” value [2] read?
A: significant activity

Q: Which “Success of therapy of hepatitis B” value [3] does the source give for `Cc1cn([C@H]2C[C@H](N=[N+]=[N-])[C@@H](CO)O2)c(=O)[nH]c1=O` [AZT, 3'-azido-3'deoxythymidine] here?
A: little, if any, success

Q: For `Nc1nc2c(ncn2[C@H]2C=C[C@@H](CO)C2)c(=O)[nH]1` [Carbovir, carbocyclic analog of 2',3'-dideoxy-2',3'-didehydroguanosine], which “Activity against human immunodeficiency virus” value [2] is on record?
A: significant activity

Q: With `Nc1ccn([C@H]2C=C[C@@H](CO)O2)c(=O)n1` [Compound D4C, 2',3'-dideoxy-2',3'-didehydrocytidine] as the compound, how does the “Activity against human immunodeficiency virus” value [2] read?
A: significant activity

Q: Which “Activity against human immunodeficiency virus” value [2] does the source give for `Cc1cn([C@H]2C=C[C@@H](CO)O2)c(=O)[nH]c1=O` [Compound D4T, 3'-deoxy-2',3'-didehydrothymidine] here?
A: significant activity

Q: Which “Activity against human immunodeficiency virus” value [2] does the source give for `OC[C@@H]1CC[C@H](n2cnc3c(O)ncnc32)O1` [DDI, 2',3'-dideoxyinosine] here?
A: significant activity

Q: For `Nc1nc2c(ncn2COCCO)c(=O)[nH]1` [acyclovir], which “Success of therapy of hepatitis B” value [3] is on record?
A: little, if any, success

Q: With `Nc1ncnc2c1ncn2[C@@H]1O[C@H](CO)[C@@H](O)[C@@H]1O` [adenine arabinoside] as the compound, how does the “Success of therapy of hepatitis B” value [3] read?
A: limited success

Q: With `Nc1nc(=O)n([C@H]2CC[C@H](CO)O2)cc1F` [alpha-L-FddC, 1(2,3-dideoxy-alpha-L-ribofuranosyl)-5-fluorocytosine] as the compound, how does the IC50 [4] read?
A: 500 nM

Q: What about the CC50 at 72 h [5] of the same compound?
A: > 100000 nM

Q: And the IC50 [6, 11]?
A: 300 nM

Q: For `Nc1ccn([C@H]2CC[C@H](CO)S2)c(=O)n1` [alpha-L-ddSC, 1(2,3-dideoxy-4-thio-alpha-L-ribofuranosyl) cytosine], which IC50 [4] is on record?
A: > 500 nM

Q: And the CC50 at 72 h [5]?
A: > 100000 nM

Q: What about the IC50 [6, 11] of the same compound?
A: > 100000 nM

Q: Which “Success of therapy of hepatitis B” value [3] does the source give for `Nc1ncnc2c1ncn2[C@@H]1O[C@H](COP(=O)(O)O)[C@@H](O)[C@@H]1O` [ara-AMP] here?
A: limited success

Q: With `Nc1ccn([C@H]2CC[C@@H](CO)O2)c(=O)n1` [ddC, 1-(2,3-dideoxy-beta-D-ribofuranosyl)cytosine, reference compound] as the compound, how does the IC50 [4] read?
A: 2800 nM

Q: What about the CC50 at 72 h [5] of the same compound?
A: 28000 nM

Q: What about the “Cellular cytotoxicity, comparison with ddC” value [7] of the same compound?
A: much more cytotoxic; also recorded: more cytotoxic than β-L-FddC

Q: What about the IC50 [6, 12] of the same compound?
A: 28 nM

Q: What about the “Anti-HIV activity compared with ddC” value [6] of the same compound?
A: less active against HIV

Q: What about the “Activity against human immunodeficiency virus” value [2] of the same compound?
A: among the most potent inhibitors of HIV

Q: What about the “Activity against human immunodeficiency virus” value ([2]; listed as DDC) of the same compound?
A: significant activity

Q: And the Dose limiting toxicity [8]?
A: severe neuropathy

Q: What about the IC50 [9] of the same compound?
A: 22 nM

Q: For `O=C(O)P(=O)(O)O` [foscarnet], which “Success of therapy of hepatitis B” value [3] is on record?
A: little, if any, success

Q: What does the source list for `Nc1nc(=O)n([C@@H]2CC[C@H](CO)O2)cc1F` [β-L-FddC, 1-(2,3-dideoxy-beta-L-ribofuranosyl)-5-fluorocytosine]?
A: IC50 [4]: 10 nM; Activity against HBV, comparison [4]: several fold higher activity against HBV; Inhibition of HBV DNA replication [4]: efficiently inhibited; CC50 at 72 h [5]: 67000 nM; Cellular cytotoxicity, comparison with ddC [7]: considerably less; Difference of anti-HIV ID50, β-L-FddC versus ddC ([6]; 0.007 vs 0.028 micromolar): 4 fold; IC50 [6, 12]: 7 nM; Anti-HIV activity compared with ddC [6]: significantly more effective than ddC; also recorded: several fold higher activity against HIV; Effect on host mitochondrial DNA [10]: relatively little effect; Toxicity associated with dose limiting neuropathy [10]: virtually no toxicity associated with dose limiting neuropathy; IC50 [9]: > 100000 nM

Q: With `Nc1ccn([C@@H]2CC[C@H](CO)O2)c(=O)n1` [β-L-ddC, 1-(2,3-dideoxy-beta-L-ribofuranosyl)cytosine] as the compound, how does the IC50 [4] read?
A: 10 nM

Q: What about the “Activity against HBV, comparison” value [4] of the same compound?
A: several fold higher activity against HBV

Q: And the “Inhibition of HBV DNA replication” value [4]?
A: efficiently inhibited

Q: What about the CC50 at 72 h [5] of the same compound?
A: 70000 nM

Q: And the “Cellular cytotoxicity, comparison with ddC” value [7]?
A: considerably less

Q: What about the IC50 [6, 11] of the same compound?
A: 350 nM

Q: And the IC50 [9]?
A: > 100000 nM

Q: With `Nc1ccn([C@@H]2CC[C@H](CO)S2)c(=O)n1` [β-L-ddSC, 1-(2,3-dideoxy-4-thio-beta-L-ribofuranosyl)cytosine] as the compound, how does the IC50 [4] read?
A: > 500 nM

Q: What about the CC50 at 72 h [5] of the same compound?
A: > 100000 nM

Q: What about the IC50 [6, 11] of the same compound?
A: 70000 nM

Q: For interferon alpha, which “Success of therapy of hepatitis B” value [3] is on record?
A: limited success
